We go through 2 compounds from article PMC8047011, “Enantiomers of 2-methylglutamate and 2-methylglutamine selectively impact mouse brain metabolism and behavior” (Scientific Reports, 2021).

Series [1] deals with T1, GABAA α4β3γ2 (Homo sapiens, UniProt P28472+P48169).
T1 construct: host or cells: HEK 293
Nature of the series: FLIPR functional receptor assay, GABAA α4β3γ2. Conditions: agonist mode; top test concentration 1 mM. It is filed as cell-based. Here is the method: intensity and lower number of tone and shock (2x) pairings to create a greater opportunity to observe pharmacologic activity.
Receptor functional & binding assays
Functional assays of all GABAA, NMDA (GluN2A–GluN2D) and AMPA (GluA2) receptor subunits were performed by SB Drug Discovery as a part of their CNS discovery panel using FLIPR technology. Briefly, receptor-expressing HEK 293 cell lines were incubated in a red membrane potential dye in HEPES:HBSS pH 7.4 buffer and the fluorescence (λex: 488, λex: 510–570) was monitored over time as the test compounds and/or reference compounds were added to the solution. In agonist assay, only test compounds were added. In positive allosteric modulator assay, cells were preincubated with test compounds and then low concentration (approximately EC20) of an appropriate agonist was added. In antagonist assay, cells were preincubated with test compounds and then high concentration (approximately EC80) of an appropriate agonist was added. For GABAA assays, GABA was used as the agonist, picrotoxin was used as the reference antagonist and allopregnanolone was used as the reference positive allosteric modulator (PAM). […] All compounds were tested at 7 concentration points in triplicate and EC50/IC50 was determined where applicable. […]

In series [2] the target is T2, GABAB (B1b/B2) (Homo sapiens, UniProt Q9UBS5).
T2 construct: purchased SB Drug Discovery (CNS discovery panel, FLIPR); Eurofins Discovery (Cerep)
Description: GABAB (B1b/B2) binding assay. Conditions: triplicate, read-out: % of radioligand binding inhibition, GABAB (B1b/B2). The protocol:
mGluR1, mGluR2, mGluR5 and GABAB binding assays were performed by Eurofins Discovery. […]
mGluR5 and GABAB binding assays were performed using recombinant CHO-K1 cells and
[3H]CGP-54626 and [3H]quisqalic acid, respectively. All compounds were tested at a single
concentration of 100 uM in triplicate. […]

Series [3] concerns NMDA nonspecific. Nature of the series: Nonspecific NMDA binding assay. Conditions: 100 μM, triplicate; rat. The protocol:
(§1) Nonspecific AMPA, kainate and NMDA binding assays were performed by Eurofins Discovery
(§2) (Cerep) using rat cerebral cortex membranes and radiolabeled [3H]AMPA, [3H]kainic acid and
(§3) [3H]CGP 39653, respectively. […]

Series [4] relates to C57Bl/6 mice. Type of series: in vivo. The conditions noted are these: for Distance moved in the novel cage: single dose 100, 300, or 900 mg/kg IP, dose- and time-dependent, P < 0.001. The protocol:
See Supplementary Methods for details.
The lysate was centrifuged (2,500g for 15 min at 4 °C) and the supernatant was assayed using Pierce BCA Protein Assay Kit (23225) using BioTek Epoch plate spectrophotometer by recording absorbance at 562 nm.
Two or three 10 μL aliquots of the homogenate were transferred to a 96 well plate and extracted with 190 μL of 60% acetonitrile in water containing 10 μM GABA-d6 or 10 μM Glu-d5 and Gln-d5 as internal standards. 40 μL aliquots of the extracts were then diluted with 120 μL of acetonitrile and prepared for LC-MS/MS analysis. Brain and serum half-lives were calculated using the ‘PKNCA’ package for R. Endogenous levels of Glu, Gln and GABA were determined in the brains of mice used in the pharmacokinetics experiment. MRM transitions specific for Glu, Gln and GABA were monitored simultaneously.
In vivo animal studies; Maximum Tolerated Dose (MTD) and behavioral studies […]
000664) were group-housed in a Stanford University animal facility with 12:12 hour light/dark cycle ([…]) and had free access to water and food. All behavioral tests were conducted during the animal dark-cycle. […]
Novel Cage Observation: The mouse was dosed and immediately placed in the center of a clean, Innovive disposable rat cage with bedding (dimensions: 17"L x 13.4"W x 7.8"H) and allowed to move freely while being tracked automatically. Mice were monitored with Ethovision XT tracking software for the distance moved and average velocity during the 60-minute trial. […]
Hot plate test: Hot Plate apparatus (IITC Inc. Model 39) was set to 55°C± 0.2. […] Latency time was recorded when hind paw licking or jumping off first occurred.
SHIRPA: The SHIRPA preliminary screen designed by Rogers et al. (1997) was modified and used to assess the general health and behavioral traits of the mice for the initial five minutes after drug administration. […] The test began by placing the mouse in the clear plastic viewing jar for 60 seconds, and the behavioral parameters were monitored and recorded. […]
Behavioral parameters monitored were according to Portmann et al. (2014). […]

The subject of series [5] is kainate nonspecific. Description: Nonspecific kainate binding assay. Conditions: 100 μM, triplicate; rat. Here is the method:
as §1, §2, §3

Structures are written as SMILES.

T2 sequence (Q9UBS5 1-844 isoform Q9UBS5-2): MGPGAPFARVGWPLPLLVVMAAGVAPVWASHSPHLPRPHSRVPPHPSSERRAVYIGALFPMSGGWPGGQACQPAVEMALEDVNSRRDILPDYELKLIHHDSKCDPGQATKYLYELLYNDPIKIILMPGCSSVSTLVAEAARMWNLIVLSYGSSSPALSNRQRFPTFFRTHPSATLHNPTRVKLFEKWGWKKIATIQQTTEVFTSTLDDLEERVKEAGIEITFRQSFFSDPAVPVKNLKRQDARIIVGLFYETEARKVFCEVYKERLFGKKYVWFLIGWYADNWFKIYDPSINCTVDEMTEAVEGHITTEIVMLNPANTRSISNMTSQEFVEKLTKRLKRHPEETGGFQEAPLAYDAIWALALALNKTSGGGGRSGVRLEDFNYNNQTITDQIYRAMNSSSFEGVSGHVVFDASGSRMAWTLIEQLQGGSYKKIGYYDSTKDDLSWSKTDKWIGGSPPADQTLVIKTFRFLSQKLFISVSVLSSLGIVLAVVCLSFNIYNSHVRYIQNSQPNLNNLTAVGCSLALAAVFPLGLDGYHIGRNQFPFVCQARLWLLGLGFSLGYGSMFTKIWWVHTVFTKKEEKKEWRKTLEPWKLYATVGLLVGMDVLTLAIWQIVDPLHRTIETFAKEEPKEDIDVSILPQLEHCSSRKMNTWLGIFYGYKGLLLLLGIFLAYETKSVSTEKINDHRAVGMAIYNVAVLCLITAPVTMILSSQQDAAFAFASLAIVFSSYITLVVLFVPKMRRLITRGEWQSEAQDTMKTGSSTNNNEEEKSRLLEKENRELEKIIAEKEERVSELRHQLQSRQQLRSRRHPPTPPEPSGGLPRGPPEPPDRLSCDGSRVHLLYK
T2 sequence (O75899 42-941 partner): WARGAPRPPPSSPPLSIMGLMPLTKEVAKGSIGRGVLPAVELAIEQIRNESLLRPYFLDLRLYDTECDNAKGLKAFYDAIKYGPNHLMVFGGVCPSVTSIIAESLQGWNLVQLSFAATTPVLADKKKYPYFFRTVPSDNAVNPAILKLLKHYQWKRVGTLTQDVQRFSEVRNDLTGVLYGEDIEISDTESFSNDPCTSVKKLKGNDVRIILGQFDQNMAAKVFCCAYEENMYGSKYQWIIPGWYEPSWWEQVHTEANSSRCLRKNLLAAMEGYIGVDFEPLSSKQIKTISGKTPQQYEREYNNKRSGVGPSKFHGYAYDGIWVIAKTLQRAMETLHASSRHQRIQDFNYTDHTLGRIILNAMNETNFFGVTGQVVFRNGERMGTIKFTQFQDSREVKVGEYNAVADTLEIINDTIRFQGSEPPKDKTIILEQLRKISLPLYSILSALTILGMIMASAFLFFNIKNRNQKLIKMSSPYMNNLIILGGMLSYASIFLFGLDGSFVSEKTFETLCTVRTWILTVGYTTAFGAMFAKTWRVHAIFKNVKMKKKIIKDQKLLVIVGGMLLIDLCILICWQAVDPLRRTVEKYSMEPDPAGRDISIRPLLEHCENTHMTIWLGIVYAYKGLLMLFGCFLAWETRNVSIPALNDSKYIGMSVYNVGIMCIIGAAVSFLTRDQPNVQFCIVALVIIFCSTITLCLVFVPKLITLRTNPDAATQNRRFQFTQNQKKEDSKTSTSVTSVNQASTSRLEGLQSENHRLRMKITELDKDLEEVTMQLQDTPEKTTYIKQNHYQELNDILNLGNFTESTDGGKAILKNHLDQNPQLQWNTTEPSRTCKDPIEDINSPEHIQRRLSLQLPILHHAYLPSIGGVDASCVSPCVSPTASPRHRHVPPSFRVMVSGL
T1 sequence (P48169 36-554): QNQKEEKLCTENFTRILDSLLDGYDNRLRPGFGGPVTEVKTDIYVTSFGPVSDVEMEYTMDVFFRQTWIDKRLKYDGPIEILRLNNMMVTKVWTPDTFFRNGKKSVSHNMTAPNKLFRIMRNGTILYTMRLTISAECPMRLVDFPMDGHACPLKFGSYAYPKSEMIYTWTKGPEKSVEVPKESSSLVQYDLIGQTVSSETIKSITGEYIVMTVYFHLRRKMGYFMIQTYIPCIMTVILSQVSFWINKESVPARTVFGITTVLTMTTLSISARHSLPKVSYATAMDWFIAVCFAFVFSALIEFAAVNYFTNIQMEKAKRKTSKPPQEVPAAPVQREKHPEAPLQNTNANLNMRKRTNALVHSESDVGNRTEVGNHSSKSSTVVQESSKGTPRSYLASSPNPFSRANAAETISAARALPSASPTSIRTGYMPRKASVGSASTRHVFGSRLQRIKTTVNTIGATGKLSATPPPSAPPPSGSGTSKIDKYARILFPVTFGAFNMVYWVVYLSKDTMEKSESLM
T1 sequence (P28472 26-473): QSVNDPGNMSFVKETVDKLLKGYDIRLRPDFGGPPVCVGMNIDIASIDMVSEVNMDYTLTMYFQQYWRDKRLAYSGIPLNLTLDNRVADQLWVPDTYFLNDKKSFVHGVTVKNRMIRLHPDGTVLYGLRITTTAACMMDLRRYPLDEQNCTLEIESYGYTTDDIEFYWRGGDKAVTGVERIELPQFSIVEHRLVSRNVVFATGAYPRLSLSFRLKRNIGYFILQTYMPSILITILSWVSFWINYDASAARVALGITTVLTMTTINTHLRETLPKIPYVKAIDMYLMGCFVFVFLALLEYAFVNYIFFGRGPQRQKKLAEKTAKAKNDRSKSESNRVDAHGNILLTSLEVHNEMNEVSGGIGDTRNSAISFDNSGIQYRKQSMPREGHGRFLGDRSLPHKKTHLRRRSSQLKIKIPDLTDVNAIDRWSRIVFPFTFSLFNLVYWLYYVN
T1 sequence (P18507 40-475 partner): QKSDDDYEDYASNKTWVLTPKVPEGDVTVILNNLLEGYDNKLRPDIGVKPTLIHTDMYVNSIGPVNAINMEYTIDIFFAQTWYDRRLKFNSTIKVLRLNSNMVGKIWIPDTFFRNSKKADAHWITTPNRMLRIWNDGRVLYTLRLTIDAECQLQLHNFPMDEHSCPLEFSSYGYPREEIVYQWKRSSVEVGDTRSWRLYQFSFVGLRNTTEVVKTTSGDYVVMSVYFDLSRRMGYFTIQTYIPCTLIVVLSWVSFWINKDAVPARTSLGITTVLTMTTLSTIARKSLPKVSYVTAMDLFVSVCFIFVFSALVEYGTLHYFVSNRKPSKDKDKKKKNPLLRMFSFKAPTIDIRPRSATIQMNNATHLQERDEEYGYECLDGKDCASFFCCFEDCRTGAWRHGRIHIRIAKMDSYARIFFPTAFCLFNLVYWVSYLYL

Take `C[C@@](N)(CCC(=O)O)C(=O)O` [(R)-2MeGlu, (R)-2-methylglutamic acid]: the EC50 in series [1] was above 1000 µM. Further, the inhibition at 100 µM in series [2] came out at 13%. Further, the “% of radioligand binding inhibition, NMDA nonspec” value in series [3] amounted to 8%. For the same compound, the “Survival after single dose” value in series [4] (male, C57Bl/6, mouse, in vivo) was “Only one mouse died 10 days after 900 mg/kg”. Also, the “Distance moved in the novel cage” value in series [4] was “significantly decreased”. Also, in series [5], the “% of radioligand binding inhibition, kainate nonspec” value was determined as 18%.
Take `C[C@](N)(CCC(=O)O)C(=O)O` [(S)-2MeGlu, (S)-2-methylglutamic acid]: the EC50 in series [1] is above 1000 µM. In addition, the inhibition at 100 µM in series [2] was 14%. Besides, the “% of radioligand binding inhibition, NMDA nonspec” value in series [3] is 3%. Further, in series [4], the “Distance moved in the novel cage” value is recorded as “significantly decreased”. In addition, the “% of radioligand binding inhibition, kainate nonspec” value in series [5] is given as 20%.

The EC50 is the concentration giving half of the maximal effect.
